Entries after “also recorded” stand apart in the source; their conditions may differ. Values belong to the compound of their own block, whether it stands above or below them.
Columns and labels:
[1] = Heating of tegaserod maleate polymorphic forms, form after heating; type: physicochemical; conditions: for Polymorphic transformation / thermal stability upon heating: statement in text, temperature not given
Source text: X-Ray powder diffraction data were obtained using by method known in the art using a SCINTAG powder X-Ray diffractometer model X'TRA equipped with a solid state detector. Copper radiation of 1.5418 Å was used. A round aluminum sample holder with zero background was used. All peak positions are within ±0.2 degrees two theta.

[2] = Physician's Desk Reference, 57th Ed., cited from earlier work
[3] = Solubility of tegaserod acetate Form J compared with tegaserod base; type: physicochemical; conditions: solvent not stated

Compound: CCCCCNC(=N)N/N=C/c1c[nH]c2ccc(OC)cc12.O=C(O)/C=C\C(=O)O [Form B1, Tegaserod maleate]
- Polymorphic transformation upon heating, assumed from DSC curves ([1]; assumed from DSC curves, all forms show the melting peak of Form A): transform to Form A upon heating

Compound: CCCCCNC(=N)N/N=C/c1c[nH]c2ccc(OC)cc12.O=C(O)/C=C\C(=O)O [tegaserod as the maleate salt, Tegaserod maleate]
- Solubility in ethanol ([2]; ethanol): slightly soluble
- Solubility in water ([2]; water): very slightly soluble

Compound: CCCCCNC(=N)N/N=C/c1c[nH]c2ccc(OC)cc12.O=C(O)/C=C\C(=O)O [Form C, Tegaserod maleate]
- Polymorph form after heating ([1]; 2 hr. at 140 deg., listed as C): C > A
- Polymorphic transformation / thermal stability upon heating ([1]; listed as C): transform to Form A upon heating

Compound: CCCCCNC(=N)N/N=C/c1c[nH]c2ccc(OC)cc12.O=C(O)/C=C\C(=O)O [Form B2, Tegaserod maleate]
- Polymorph form after heating ([1]; 2 hr. at 80 deg.): B + C + A
- Polymorph form after heating ([1]; 2 hr. at 100 deg.): B + C + A
- Polymorph form after heating ([1]; 2 hr. at 120 deg.): C + A
- Polymorph form after heating ([1]; 2 hr. at 140 deg., listed as B2): C + A
- Polymorphic transformation / thermal stability upon heating [1]: transform to Form A upon heating

Compound: CCCCCNC(=N)N/N=C/c1c[nH]c2ccc(OC)cc12.O=C(O)/C=C\C(=O)O [Form A, Tegaserod maleate, reference compound]
- Polymorphic transformation / thermal stability upon heating [1]: exhibits thermal stability at higher temperatures

Compound: CCCCCNC(=N)N/N=C/c1c[nH]c2ccc(OC)cc12.O=C(O)/C=C\C(=O)O [Form D, Tegaserod maleate]
- Polymorphic transformation / thermal stability upon heating [1]: transformation to Form A; also recorded: transforms to Form A upon heating

- Solubility relative to tegaserod base [3]: less soluble than tegaserod base
Compound: Tegaserod acetate [Tegaserod acetate Form J]

Compound: CCCCCNC(=N)N/N=C/c1c[nH]c2ccc(OC)cc12.O=C(O)/C=C\C(=O)O [Form B, Tegaserod maleate]
- Polymorph form after heating ([1]; 2 hr. at 100 deg., listed as B (wet)): B > C + A
- Polymorph form after heating ([1]; 2 hr. at 120 deg., listed as B (wet)): A > C
- Polymorphic transformation / thermal stability upon heating [1]: transform to Form C upon heating before it transforms to Form A
- Polymorphic transformation / thermal stability upon heating ([1]; listed as B): transform to Form A upon heating
